Laboratory results as given in US11351168B1 (Celgene CAR LLC, priority 2008, dated 2022).

What was measured:
[1] = test system: BTK kinase activity (PLCγ2 phosphorylation) in Ramos cells; experiment: Washout experiment with Ramos cells; format: cell-based, human; settings: 100 nM compound for 1 hour, then washout
Procedure: Washout Experiment with Ramos Cells
Ramos cells were serum starved for one hour in RPMI media+1% glutamine at 37° C. After starvation, Ramos cells were treated with 100 nM compound diluted in serum free RPMI media for 1 hour. After compound treatment, the media was removed and cells were washed with compound-free media. Subsequently, Ramos cells were washed every 2 hours and resuspended in fresh compound-free media. Cells were collected at specified timepoints, treated with 1 ug anti-human IgM (Southern Biotech cat #2022-01) for 10 minutes on ice to induce BCR signaling and then washed in PBS. Ramos cells were then lysed in Cell Extraction Buffer (Invitrogen FNN0011) supplemented with Roche complete protease inhibitor tablets (Roche 11697498001) and phosphatase inhibitors (Roche 04 906 837 001) and 18 ug total protein lysate was loaded in each lane. Inhibition of BTK kinase activity was assayed by measuring its substrate (PLCγ2) phosphorylation by western blot with phospho-specific antibodies from Cell Signaling Technologies cat #3871. The results of this experiment with compounds I-2, I-4 and I-7 are depicted in FIGS. 1, 2 and 3.

TEC kinase = TEC kinase (Homo sapiens (Human), UniProt P42680); experiment: Mass spectrometry for TEC kinase (tryptic digest); format: binding; settings: 3 hrs at 10× excess, tryptic digestion
TEC kinase, sequence (P42680 whole entry): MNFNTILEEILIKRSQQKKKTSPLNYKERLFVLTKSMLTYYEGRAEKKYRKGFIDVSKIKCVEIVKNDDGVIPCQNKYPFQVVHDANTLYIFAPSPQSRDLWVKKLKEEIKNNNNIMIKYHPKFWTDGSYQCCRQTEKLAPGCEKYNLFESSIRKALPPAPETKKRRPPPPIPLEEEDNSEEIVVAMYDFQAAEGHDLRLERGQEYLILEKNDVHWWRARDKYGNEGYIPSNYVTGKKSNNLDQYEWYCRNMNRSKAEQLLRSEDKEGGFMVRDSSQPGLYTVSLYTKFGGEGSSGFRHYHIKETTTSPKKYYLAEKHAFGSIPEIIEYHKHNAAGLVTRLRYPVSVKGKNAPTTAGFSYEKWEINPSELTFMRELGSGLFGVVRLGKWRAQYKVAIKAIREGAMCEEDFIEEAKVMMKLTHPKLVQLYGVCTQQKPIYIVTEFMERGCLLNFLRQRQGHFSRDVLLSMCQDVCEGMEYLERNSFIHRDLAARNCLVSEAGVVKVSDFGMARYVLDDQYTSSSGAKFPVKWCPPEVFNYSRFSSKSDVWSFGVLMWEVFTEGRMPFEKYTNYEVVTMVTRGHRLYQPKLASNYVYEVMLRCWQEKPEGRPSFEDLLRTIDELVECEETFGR
Procedure: Mass Spectrometry for TEC Kinase (Compound I-2)
(§1) TEC kinase (45 pmols; Invitrogen) was incubated with (I-2) (450 pmols) for 3 hrs at 10× excess prior to tryptic digestion. Iodoacetamide was used as the alkylating agent after compound incubation. […] For tryptic digests a 5 ul aliquot (7.5 pmols) was diluted with 15 ul of 0.1% TFA prior to micro C18 Zip Tipping directly onto the MALDI target using alpha cyano-4-hydroxy cinnamic acid as the matrix (5 mg/ml in 0.1% TFA:Acetonitrile 50:50).
(§2) For tryptic digests the instrument was set in Reflectron mode with a pulsed extraction setting of 2200. Calibration was done using the Laser Biolabs Pep Mix standard ([…], 1296.69, 1672.92, 2093.09, 2465.20). For CID/PSD analysis the peptide was selected using cursors to set ion gate timing and fragmentation occurred at a laser power about 20% higher and He was used as the collision gas for CID. Calibration for fragments was done using the P14R fragmentation calibration for the Curved field Reflectron.
as §1, with “(I-4)” for “(I-2)”
as §2, with “1800.” for “2200.”
TEC kinase (45 pmols; Invitrogen) was incubated with […] (450 pmols) for 3 hrs at 10× excess prior to tryptic digestion. […]

JAK3 kinase = JAK3 kinase (Homo sapiens (Human), UniProt P52333); experiment: Mass spectrometry for Janus-3 kinase (JAK3); format: binding; settings: 3 hrs at 10× excess, tryptic digestion
JAK3 kinase, sequence (P52333 whole entry): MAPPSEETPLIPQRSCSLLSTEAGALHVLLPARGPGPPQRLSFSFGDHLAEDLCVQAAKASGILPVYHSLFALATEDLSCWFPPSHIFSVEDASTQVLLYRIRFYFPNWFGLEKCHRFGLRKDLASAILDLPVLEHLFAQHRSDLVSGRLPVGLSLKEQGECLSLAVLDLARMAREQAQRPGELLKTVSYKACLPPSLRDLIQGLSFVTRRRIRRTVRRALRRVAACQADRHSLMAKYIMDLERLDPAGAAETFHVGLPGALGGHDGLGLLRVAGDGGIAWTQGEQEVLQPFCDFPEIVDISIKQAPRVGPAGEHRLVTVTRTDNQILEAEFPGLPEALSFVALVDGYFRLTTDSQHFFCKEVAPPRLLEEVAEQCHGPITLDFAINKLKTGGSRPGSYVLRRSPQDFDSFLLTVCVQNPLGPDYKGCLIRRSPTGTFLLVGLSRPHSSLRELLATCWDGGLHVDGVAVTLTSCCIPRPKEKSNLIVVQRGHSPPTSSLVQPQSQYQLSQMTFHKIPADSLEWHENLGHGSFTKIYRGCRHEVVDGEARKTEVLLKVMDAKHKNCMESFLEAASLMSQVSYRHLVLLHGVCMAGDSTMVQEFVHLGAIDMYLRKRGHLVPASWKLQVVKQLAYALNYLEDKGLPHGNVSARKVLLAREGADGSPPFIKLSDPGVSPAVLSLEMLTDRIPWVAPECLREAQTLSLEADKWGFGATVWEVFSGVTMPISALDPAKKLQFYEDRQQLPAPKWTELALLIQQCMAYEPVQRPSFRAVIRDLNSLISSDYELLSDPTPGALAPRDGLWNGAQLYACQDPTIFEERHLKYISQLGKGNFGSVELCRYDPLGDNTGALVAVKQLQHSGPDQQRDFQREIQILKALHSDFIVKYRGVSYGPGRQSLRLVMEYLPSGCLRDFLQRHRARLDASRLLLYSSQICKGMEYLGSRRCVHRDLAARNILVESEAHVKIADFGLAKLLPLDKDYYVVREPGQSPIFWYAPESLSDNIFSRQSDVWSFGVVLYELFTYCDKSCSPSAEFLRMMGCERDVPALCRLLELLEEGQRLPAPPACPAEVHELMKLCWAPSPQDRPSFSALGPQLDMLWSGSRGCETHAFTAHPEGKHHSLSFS
Procedure: Mass Spectrometry for Janus-3 Kinase (JAK3)
JAK3 kinase (33 pmols; Invitrogen) was incubated with (I-7) (327 pmols) for 3 hrs at 10× excess prior to tryptic digestion. Iodoacetamide was used as the alkylating agent after compound incubation. For tryptic digests a 5 ul aliquot (5.5 pmols) was diluted with 15 ul of 0.1% TFA prior to micro C18 Zip Tipping directly onto the MALDI target using alpha cyano-4-hydroxy cinnamic acid as the matrix (5 mg/ml in 0.1% TFA:Acetonitrile 50:50).
as §2

BTK in Ramos cells [2] = target: T1, BTK in Ramos cells (Homo sapiens (Human), UniProt Q06187); experiment: BTK occupancy from in vitro samples by ELISA (Ramos cells); format: cell-based; settings: ELISA with probe I-215
T1 sequence (Q06187 whole entry): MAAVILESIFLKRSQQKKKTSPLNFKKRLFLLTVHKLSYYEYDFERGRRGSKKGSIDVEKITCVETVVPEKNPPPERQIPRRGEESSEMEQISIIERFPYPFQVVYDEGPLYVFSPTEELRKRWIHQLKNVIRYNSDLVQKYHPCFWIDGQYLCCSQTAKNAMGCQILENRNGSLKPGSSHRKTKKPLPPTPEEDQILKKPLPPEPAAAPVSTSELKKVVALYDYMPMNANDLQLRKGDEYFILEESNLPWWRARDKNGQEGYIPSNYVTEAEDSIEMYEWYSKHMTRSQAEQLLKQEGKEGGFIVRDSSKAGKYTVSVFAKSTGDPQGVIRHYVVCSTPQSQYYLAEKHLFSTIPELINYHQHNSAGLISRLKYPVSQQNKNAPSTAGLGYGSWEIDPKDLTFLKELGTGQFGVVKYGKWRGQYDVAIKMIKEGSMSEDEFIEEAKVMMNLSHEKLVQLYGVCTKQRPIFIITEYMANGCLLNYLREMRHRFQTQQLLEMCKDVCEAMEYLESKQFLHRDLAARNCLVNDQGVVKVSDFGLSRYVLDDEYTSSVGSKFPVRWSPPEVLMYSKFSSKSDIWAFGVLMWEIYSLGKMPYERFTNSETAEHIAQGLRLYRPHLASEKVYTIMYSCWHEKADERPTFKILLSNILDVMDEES
Description: Measuring BTK Occupancy from In Vitro Samples by ELISA
In order to determine the amount of free BTK in cell or tissue lysates, an ELISA protocol was employed that utilizes a biotinylated probe compound that binds only to free, unoccupied BTK. The conjugated biotin is captured on a streptavidin-coated ELISA plate and detected with a mouse anti-BTK antibody (Becton Dickinson, Franklin Lakes, N.J., USA) and a secondary goat anti-mouse HRP antibody (Zymed, South San Francisco, Calif., USA).
All samples were prepared with equal concentrations of Biorad lysis buffer (Hercules, Calif., USA), 0.5% bovine serum albumin in PBS with 0.05% Tween-20 to give a final concentration of 1 μM I-215. Samples were incubated in a mixing plate for 1 hr at room temperature while shaking to allow probe compound I-215 to bind to free BTK. After incubation with I-215, samples were added to a washed, streptavidin-coated ELISA plate (Pierce, Rockford, Ill., USA) and incubated for 1 hr at room temperature while shaking. The plate was then washed with PBS containing 0.05% Tween-20 using an automatic plate washer. Anti-BTK antibody was prepared at 1:1000 dilution in 0.5% BSA in PBS (0.05% Tween-20) and added to the ELISA plate. The plate was incubated for 1 hr at room temperature while shaking. The plate was washed as described above and the secondary HRP antibody was prepared at 1:5000 dilution in 0.5% BSA in PBS (0.05% Tween-20). The plate was incubated and washed as described above. TMB was added to the plate, and OD650 was monitored until reaching 1 OD unit. The reaction was then stopped with addition of H2SO4. The plate was analyzed using Gen 5 software, and a 4 Parameter Logistic curve was employed to quantitate samples. Recombinant BTK (Invitrogen, Carlsbad, Calif., USA) was used for the standard curve.
A concentration designated as “A” is greater than 1 nM; a concentration designated as “B” is greater than 10 nM; and a concentration designated as “C” is greater than 50 nM.

BTK in Ramos cells [3] = target: T1, BTK in Ramos cells; experiment: Washout experiment with I-7 and probe compound I-215 in Ramos cells; format: cell-based; settings: 0.1 μM, 1 hour, then washout
Procedure: Washout Experiment with I-7 and Probe Compound I-215
Ramos cells were incubated with 0.1 μM I-7 or a reversible BTK inhibitor control compound in serum free media for 1 hour at 37° C. The cells were then washed in compound-free media and lysed 0, 4, 6, or 8 hours after compound removal. Cell lysates were incubated with 1 μM I-215 for 1 hour at room temperature, then overnight at 4° C. with streptavidin-coupled agarose beads. Protein was boiled off the beads and BTK association was assessed by western blot. […] In contrast, with the reversible inhibitor control, 45% of BTK protein is unbound and available to the probe at 0 hours and by 4 hours 100% of BTK protein is unbound and available to bind the probe. All samples were normalized to the DMSO-treated cells harvested at 0 hours.

BTK = BTK (Homo sapiens (Human), UniProt Q06187); experiment: Mass spectrometry for BTK (intact protein); format: binding; settings: 1 hr, 10× fold excess of compound
BTK, sequence (Q06187 whole entry): as above
Procedure: Mass Spectrometry for BTK
Intact BTK was incubated for 1 hr at a 10× fold excess of I-7 to protein. Aliquots (2 μl) of the samples were diluted with 10 μl of 0.1% TFA prior to micro C4 ZipTipping directly onto the MALDI target using Sinapinic acid as the desorption matrix (10 mg/ml in 0.1% TFA:Acetonitrile 20:80).

[4] = test system: BTK signaling in Ramos cells; experiment: BTK Ramos cellular assay (phosphorylation of BTK substrate PLCγ2); format: cell-based, human; settings: Homo sapiens, 1 hour compound, anti-IgM stimulation, read-out: BTK Inhibition (Ramos cellular)
How it was run: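 Serum-starved Ramos Burkitt lymphoma cells treated 1 h with compound at 1, 0.1, 0.01 or 0.001 μM final. B-cell receptor stimulated with 1 μg anti-human IgM F(ab′)2, 10 min on ice. Lysates (16 μg protein) immunoblotted for phospho-PLCγ2.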

SMILES	BTK Inhibition Type [1]	covalent modification of TEC kinase peptide GCLLNFLR by mass spectrometry (TEC kinase)	modification of JAK3 kinase by mass spectrometry (JAK3 kinase)	>50% occupancy (concentration) (BTK in Ramos cells [2])	>90% occupancy (concentration) (BTK in Ramos cells [2])	time BTK protein remains occupied after compound removal (BTK in Ramos cells [3])	modification of BTK by mass spectrometry (BTK)	IC50 [4] [nM]
C=CC(=O)Nc1cccc(Nc2ncc(C)c(Nc3cccc(C)c3)n2)c1 [Compound I-2, N-(3-(5-methyl-4-(m-tolylamino)pyrimidin-2-ylamino)phenyl) acrylamide]	irreversible	reaction was complete	–	–	–	–	–	–
C=CC(=O)Nc1cccc(Nc2nc(Nc3ccccc3)ncc2C)c1 [Compound I-7, N-(3-(5-methyl-2-(phenylamino)pyrimidin-4-ylamino)phenyl) acrylamide]	irreversible	reaction was complete	not entirely complete	A (greater than 1 nM)	B (greater than 10 nM)	over 8 hours	complete modification	< 10
Cc1cccc(Nc2nc(Nc3cccc(NC(=O)/C=C/CN(C)C)c3)ncc2F)c1 [Compound I-4, (E)-4-(dimethylamino)-N-(3-(5-fluoro-4-(m-tolylamino)pyrimidin-2-ylamino)phenyl)but-2-enamide]	irreversible	reaction was complete	–	–	–	–	–	10 to 100
C=CC(=O)Nc1cccc(Nc2nc(Nc3ccc(OCCOC)c(F)c3)ncc2F)c1 [Compound I-96, N-(3-(2-(3-fluoro-4-(2-methoxyethoxy)phenylamino)-5-fluoropyrimidin-4-ylamino)phenyl)acrylamide]	–	–	–	A (greater than 1 nM)	B (greater than 10 nM)	–	completely modify	< 10
Cc1cnc(Nc2cccc(S(N)(=O)=O)c2)nc1Nc1ccc2c(c1)CCN(C(=O)CCl)C2 [Compound I-11, 3-(4-(2-(2-chloroacetyl)-1,2,3,4-tetrahydroisoquinolin-6-ylamino)-5-methylpyrimidin-2-ylamino)benzenesulfonamide]	–	–	measurable modification	–	–	–	–	–
